The nature of series [1]: in vitro. The settings on record: human, Caco-2.
Description: Permeability across human Caco2 cells
Series [2] is described as follows: in vitro. The following applies: rabbit.
Description: Corneal permeability in rabbit corneal tissues mounted on vertical Using chambers
The target in series [3] is Prostaglandin F2-alpha receptor (Mus musculus) (UniProt P43117). Briefly: Intrinsic activity at FP receptor in mouse 3T3 fibroblast cells assessed as maximum compound-evoked response. In kind it is cell-based.
Series [4] addresses Prostaglandin F2-alpha receptor (Mus musculus, UniProt P43117).
Description: Agonist activity at FP receptor in mouse 3T3 fibroblast cells assessed as intracellular calcium mobilization by FLIPR

Some results are limits rather than exact numbers.

Sequence of Prostaglandin F2-alpha receptor (P43117 whole entry): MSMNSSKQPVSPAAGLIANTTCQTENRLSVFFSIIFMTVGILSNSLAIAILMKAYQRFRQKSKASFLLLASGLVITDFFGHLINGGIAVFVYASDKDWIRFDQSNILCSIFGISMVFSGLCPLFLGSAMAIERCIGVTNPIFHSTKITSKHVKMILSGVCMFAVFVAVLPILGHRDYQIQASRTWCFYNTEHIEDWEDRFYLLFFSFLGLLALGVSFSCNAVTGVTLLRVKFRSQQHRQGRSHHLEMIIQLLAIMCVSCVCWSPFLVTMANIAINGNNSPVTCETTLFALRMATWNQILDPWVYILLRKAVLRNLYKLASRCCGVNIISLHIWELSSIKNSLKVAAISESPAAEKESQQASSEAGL
Sequence of Prostaglandin F2-alpha receptor (Mus musculus) (P43117 whole entry): as above

Consider `CCCCC[C@H](O)/C=C/[C@@H]1[C@@H](C/C=C\CCCC(=O)O)[C@@H](O)C[C@H]1O` [DINOPROST], for which the Papp amounted to 3.3 ×10⁻⁶ cm/s in series [1] and 9.7 ×10⁻⁶ cm/s in series [2]. The Intrinsic activity in series [3] amounted to 1.
Molecule `NS(=O)(=O)c1ccc(-n2cc([C@@H]3[C@@H](C/C=C\CCCC(=O)O)[C@@H](O)C[C@H]3O)nn2)cc1` gave an EC50 in series [4] of 2 µM. Moreover, the Papp came to 3.3 ×10⁻⁶ cm/s in series [1] and 1.7 ×10⁻⁶ cm/s in series [2]. In series [3], the Intrinsic activity was above 1.
For `O=C(O)CCC/C=C\C[C@@H]1[C@@H](CC[C@@H](O)CCc2ccccc2)[C@H](O)C[C@@H]1O` [LATANOPROST ACID] the same measures were 0.00631 µM, 3.5 ×10⁻⁶ cm/s, 1.2 ×10⁻⁶ cm/s and 1.
Taken in the same sequence, the figures for `CCCCC[C@H](O)/C=C/[C@@H]1[C@@H](C/C=C\CCCC(=O)Nc2nnc(S(N)(=O)=O)s2)[C@@H](O)C[C@H]1O` were 3.98 µM, 1.6 ×10⁻⁶ cm/s, 6.4 ×10⁻⁶ cm/s and 0.9.
Regarding `NS(=O)(=O)c1nnc(NC(=O)CNC[C@@H]2[C@@H](C/C=C\CCCC(=O)O)[C@@H](O)C[C@H]2O)s1`, the EC50 in series [4] is above 5.01 µM. In addition, the results for the Papp in series [1] and in series [2] were 3 ×10⁻⁶ cm/s and 0.94 ×10⁻⁶ cm/s, respectively.
In turn, `CCCCC[C@H](O)/C=C/[C@@H]1[C@@H](C/C=C\CCCC(=O)NCCc2ccc(S(N)(=O)=O)cc2)[C@@H](O)C[C@H]1O` came in with an EC50 in series [4] above 5.01 µM.
In turn, `CC(C)OC(=O)CCC/C=C\C[C@@H]1[C@@H](CNCC(=O)Nc2nnc(S(N)(=O)=O)s2)[C@H](O)C[C@@H]1O` yielded an EC50 in series [4] above 5.01 µM. The Papp turned out to be 2.1 ×10⁻⁶ cm/s in series [1] and 3.1 ×10⁻⁶ cm/s in series [2].
In series [4], `CC(C)OC(=O)CCC/C=C\C[C@@H]1[C@@H](/C=C/C(=O)Nc2nnc(S(N)(=O)=O)s2)[C@H](O)C[C@@H]1O` registered an EC50 above 5.01 µM.
Take `CCN(C(=O)/C=C/[C@@H]1[C@@H](C/C=C\CCCC(=O)O)[C@@H](O)C[C@H]1O)[C@H]1C[C@H](C)S(=O)(=O)C2SC(S(N)(=O)=O)=CC21` (some centres undefined): the EC50 in series [4] is above 5.01 µM.
`COC(=O)CCC/C=C\C[C@@H]1[C@@H](c2cn(-c3ccc(S(N)(=O)=O)cc3)nn2)[C@H](O)C[C@@H]1O` displayed an EC50 in series [4] above 5.01 µM. The Papp in series [1] is 3.2 ×10⁻⁶ cm/s; in series [2], 2.1 ×10⁻⁶ cm/s.
On to `CCN(C(=O)/C=C/[C@@H]1[C@@H](C/C=C\CCCC(=O)OC(C)C)[C@@H](O)C[C@H]1O)[C@H]1C[C@H](C)S(=O)(=O)C2SC(S(N)(=O)=O)=CC21` (some centres undefined), for which the EC50 in series [4] was above 5.01 µM.
For the molecule `CCCCC[C@H](O)/C=C/[C@@H]1[C@@H](C/C=C\CCCC(=O)N(CC)[C@H]2CN(CCCOC)S(=O)(=O)C3SC(S(N)(=O)=O)=CC32)[C@@H](O)C[C@H]1O` (some centres undefined), the concentration for a half-maximal effect (EC50) in series [4] is above 5.01 µM.

For the origin of these results see ChEMBL document CHEMBL2321768, “A multivalent approach towards linked dual-pharmacology prostaglandin F receptor agonist/carbonic anhydrase-II inhibitors for the treatment of glaucoma” (Bioorg Med Chem Lett, 2013).
